Laboratory results from patent publication US10294202B2, “Pyrrolidinones as herbicides” (FMC Corporation, priority 2013, dated 2019).

Tests used:
[1] = system: kochia; assay: Test D pre-/postemergence herbicide test; assay type: in vivo, Kochia scoparia; conditions: for Plant response rating: Kochia, scale 0 to 100; for Plant response rating, Kochia: scale 0 to 100 (0 no effect, 100 complete control)
From the text: (§1) Seeds of plant species selected from bluegrass (annual bluegrass, Poa annua), blackgrass (Alopecurus myosuroides), canarygrass (littleseed canarygrass, Phalaris minor), chickweed (common chickweed, Stellaria media), galium (catchweed bedstraw, Galium aparine), bromegrass, downy (downy bromegrass, Bromus tectorum), field poppy (Papaver rhoeas), field violet (Viola arvensis), foxtail, green (green foxtail, Setaria viridis), deadnettle (henbit deadnettle, Lamium amplexicaule), ryegrass, Italian (Italian ryegrass, Lolium multiflorum), kochia (Kochia scoparia), lambsquarters (Chenopodium album), oilseed rape (Brassica napus), pigweed (Amaranthus retroflexus), chamomile (scentless chamomile, Matricaria inodora), Russian thistle (Salsola kali), speedwell (bird's-eye speedwell, Veronica persica), barley, spring (spring barley, Hordeum vulgare), wheat, spring (spring wheat, Triticum aestivum), buckwheat, wild (wild buckwheat, Polygonum convolvulus), mustard, wild (wild mustard, Sinapis arvensis), oat, wild (wild oat, Avena fatua), radish, wild (wild radish, Raphanus raphanistrum), […]), barley, winter (winter barley, Hordeum vulgare), and wheat, winter (winter wheat, Triticum aestivum) were planted into a silt loam soil and treated preemergence with test chemicals formulated in a non-phytotoxic solvent mixture which included a surfactant. At the same time, these species were planted in pots containing Redi-Earth® planting medium (Scotts Company, 14111 Scottslawn Road, Marysville, Ohio 43041) comprising spaghnum peat moss, vermiculite, wetting agent and starter nutrients and treated with postemergence applications of the test chemicals formulated in the same manner. Plants ranged in height from 2 to 18 cm (1- to 4-leaf stage). Treated plants and controls were maintained in a controlled growth environment for 7 to 21 days after which time all species were compared to controls and visually evaluated. Plant response ratings, summarized in Table D, are based on a scale of 0 to 100 where 0 is no effect and 100 is complete control. A dash (-) response means no test result.

[2] = system: canarygrass; assay: Test D pre-/postemergence herbicide test; assay type: in vivo, Phalaris minor; conditions: for Plant response rating: Canarygrass, scale 0 to 100; for Plant response rating, Canarygrass: scale 0 to 100 (0 no effect, 100 complete control)
From the text: as §1

[3] = system: bermudagrass; assay: Test C pre-/postemergence herbicide test; assay type: in vivo, Cynodon dactylon
From the text: (§2) Seeds of plant species selected from blackgrass (Alopecurus myosuroides), ryegrass, Italian (Italian ryegrass, Lolium multiflorum), wheat (winter wheat, Triticum aestivum), galium (catchweed bedstraw, Galium aparine), corn (Zea mays), crabgrass, large (large crabgrass, Digitaria sanguinalis), foxtail, giant (giant foxtail, Setaria faberii), johnsongrass (Sorghum halepense), lambsquarters (Chenopodium album), morningglory (Ipomoea coccinea), nutsedge, yellow (yellow nutsedge, Cyperus esculentus), pigweed (Amaranthus retroflexus), ragweed (common ragweed, Ambrosia elatior), soybean (Glycine max), barnyardgrass (Echinochloa crus-galli), oilseed rape (Brassica napus), waterhemp (common waterhemp, Amaranthus rudis), kochia (Kochia scoparia), oat, wild (wild oat, Avena fatua), surinam grass (Brachiaria decumbens), foxtail, green (green foxtail, Setaria viridis), goosegrass (Eleusine indica), bromegrass, downy (downy bromegrass, Bromus tectorum), nightshade (eastern black nightshade, Solanum ptycanthum), cocklebur (common cocklebur, Xanthium strumarium), cupgrass, woolly (woolly cupgrass, Eriochloa villosa), bermudagrass (Cynodon dactylon), sunflower, (common oilseed sunflower, Helianthus annuus), Russian thistle (Salsola kali) and velvetleaf (Abutilon theophrasti) were planted into a blend of loam soil and sand and treated preemergence with test chemicals formulated in a non-phytotoxic solvent mixture which included a surfactant. At the same time, plants selected from these crop and weed species and also barley (winter barley, Hordeum vulgare), […]), chickweed (common chickweed, Stellaria media), deadnettle (henbit deadnettle, Lamium amplexicaule), and canarygrass (littleseed canarygrass, Phalaris minor) were planted in pots containing Redi-Earth® planting medium (Scotts Company, 14111 Scottslawn Road, Marysville, Ohio 43041) comprising spaghnum peat moss, vermiculite, wetting agent and starter nutrients and treated with postemergence applications of test chemicals formulated in the same manner. Plants ranged in height from 2 to 18 cm (1- to 4-leaf stage) for postemergence treatments. Treated plants and controls were maintained in a greenhouse for 13 to 15 days, after which time all species were compared to controls and visually evaluated. Plant response ratings, summarized in Table C, are based on a scale of 0 to 100 where 0 is no effect and 100 is complete control. A dash (-) response means no test result.

[4] = system: cupgrass, woolly; assay: Test C pre-/postemergence herbicide test; assay type: in vivo, Eriochloa villosa
From the text: as §2

[5] = Preemergence, 62 g ai/ha, scale 0 to 100
[6] = Preemergence, 125 g ai/ha, scale 0 to 100 (0 no effect, 100 complete control)
[7] = Preemergence, 31 g ai/ha, scale 0 to 100 (0 no effect, 100 complete control)
[8] = Preemergence, 250 g ai/ha, scale 0 to 100 (0 no effect, 100 complete control)
[9] = Postemergence, 16 g ai/ha, scale 0 to 100 (0 no effect, 100 complete control)
[10] = Postemergence, 31 g ai/ha, scale 0 (no effect) to 100 (complete control)
[11] = Postemergence, 62 g ai/ha, scale 0 to 100 (0 no effect, 100 complete control)
[12] = Postemergence, 125 g ai/ha, scale 0 to 100 (0 no effect, 100 complete control)
[13] = Preemergence, 16 g ai/ha, scale 0 to 100
[14] = Postemergence, 250 g ai/ha, scale 0 to 100 (0 no effect, 100 complete control)
[15] = Preemergence, 31 g ai/ha, scale 0 to 100, 0 is no effect and 100 is complete control

Structure (SMILES) | Plant response rating ([1]; Postemergence, 31 g ai/ha) | Plant response rating ([1]; Postemergence, 62 g ai/ha) | Plant response rating ([1]; Postemergence, 125 g ai/ha) | Plant response rating, Kochia ([1]; Preemergence, 62 g ai/ha) | Plant response rating, Kochia ([1]; Preemergence, 31 g ai/ha) | Plant response rating ([1]; Preemergence, 125 g ai/ha) | Plant response rating ([1]; Preemergence, 250 g ai/ha) | Plant response rating ([2]; Postemergence, 31 g ai/ha) | Plant response rating ([2]; Postemergence, 62 g ai/ha) | Plant response rating ([2]; Postemergence, 125 g ai/ha) | Plant response rating, Canarygrass ([2]; Preemergence, 62 g ai/ha) | Plant response rating, Canarygrass ([2]; Preemergence, 31 g ai/ha) | Plant response rating ([2]; Preemergence, 125 g ai/ha) | Plant response rating ([2]; Preemergence, 250 g ai/ha) | Plant response rating, Bermudagrass [3, 5] | Plant response rating, Bermudagrass [3, 6] | Bermudagrass plant response rating [3, 7] | Plant response rating, Cupgrass, Woolly [4, 5] | Plant response rating, Cupgrass, Woolly [4, 6] | Cupgrass, Woolly plant response rating [4, 7] | further results
O=C1NCC(c2ccc(F)c(F)c2)C1C(=O)Nc1ccccc1C(F)(F)F (racemic) [Compound 6] | 5 | 5 | 5 | 30 | 0 | 40 | 50 | 0 | 0 | 0 | 10 | 0 | 20 | 20 |  |  |  |  |  |  | Plant response rating ([1]; Postemergence, 16 g ai/ha): 0; Plant response rating ([1]; Postemergence, 250 g ai/ha): 10; Plant response rating, Kochia ([1]; Preemergence, 16 g ai/ha): 0; Plant response rating ([2]; Postemergence, 16 g ai/ha): 0; Plant response rating ([2]; Postemergence, 250 g ai/ha): 0; Plant response rating, Canarygrass ([2]; Preemergence, 16 g ai/ha): 0
O=C1NCC(c2ccc(F)c(C(F)(F)F)c2)C1C(=O)Nc1cccc(F)c1F (racemic) [Compound 77] |  |  |  | 75 | 35 | 80 | 85 |  |  |  | 45 | 25 | 65 | 85 |  |  |  |  |  |  | 
O=C1NCCC1C(=O)N(c1ccc(F)c(F)c1)c1ccccc1F (stereo not shown) [Compound 5, N-(3,4-difluorophenyl)-N-(2-fluorophenyl)-2-oxo-3-pyrrolidinecarboxamide] |  |  |  |  |  |  |  |  |  |  |  |  |  |  | 0 | 20 | 0 | 85 | 90 | 80 | Plant response rating, Bermudagrass [3, 8]: 45; Plant response rating, Cupgrass, Woolly [4, 8]: 95
O=C1NCC(c2cc(F)c(F)c(F)c2)C1C(=O)Nc1cccc(F)c1F (stereo not shown) [Compound 48] |  |  |  |  |  |  |  |  |  |  |  |  |  |  | 0 | 0 | 0 | 70 | 85 | 70 | Plant response rating, Bermudagrass [3, 9]: 0; Plant response rating, Bermudagrass [3, 10]: 0; Plant response rating, Bermudagrass [3, 11]: 0; Plant response rating, Bermudagrass [3, 12]: 10; Plant response rating, Bermudagrass [3, 13]: 0; Plant response rating, Cupgrass, Woolly [4, 9]: 0; Plant response rating, Cupgrass, Woolly [4, 10]: 0; Plant response rating, Cupgrass, Woolly [4, 11]: 5; Plant response rating, Cupgrass, Woolly [4, 12]: 5; Plant response rating, Cupgrass, Woolly [4, 13]: 25
O=C1NCC(c2cc(F)c(F)cc2F)C1C(=O)Nc1cccc(F)c1F (stereo not shown) [Compound 50] | 15 | 15 | 0 | 10 | 10 | 0 |  | 0 | 0 | 0 | 0 | 0 | 0 |  |  |  |  |  |  |  | Plant response rating ([1]; Postemergence, 16 g ai/ha): 10; Plant response rating, Kochia ([1]; Preemergence, 16 g ai/ha): 5; Plant response rating ([2]; Postemergence, 16 g ai/ha): 0; Plant response rating, Canarygrass ([2]; Preemergence, 16 g ai/ha): 0; Plant response rating, Bermudagrass [3, 10]: 0; Plant response rating, Bermudagrass [3, 11]: 0; Plant response rating, Bermudagrass [3, 12]: 0; Plant response rating, Bermudagrass [3, 14]: 0; Plant response rating, Cupgrass, Woolly [4, 10]: 0; Plant response rating, Cupgrass, Woolly [4, 11]: 0; Plant response rating, Cupgrass, Woolly [4, 12]: 0; Plant response rating, Cupgrass, Woolly [4, 14]: 10
O=C1NCC(c2ccc(F)c(Cl)c2)C1C(=O)Nc1ccccc1F (stereo not shown) [Compound 60] |  |  |  |  |  |  |  |  |  |  |  |  |  |  | 0 | 0 | 0 | 75 | 75 | 55 | Plant response rating, Bermudagrass [3, 10]: 0; Plant response rating, Bermudagrass [3, 11]: 0; Plant response rating, Bermudagrass [3, 12]: 0; Plant response rating, Cupgrass, Woolly [4, 10]: 0; Plant response rating, Cupgrass, Woolly [4, 11]: 0; Plant response rating, Cupgrass, Woolly [4, 12]: 5
O=C1NCC(c2cccc(OC(F)(F)F)c2)C1C(=O)Nc1ccccc1F (stereo not shown) [Compound 69] |  |  |  |  |  |  |  |  |  |  |  |  |  |  | 35 | 50 |  | 85 | 85 |  | Bermudagrass plant response rating [3, 15]: 35; Plant response rating (scale of 0 to 100), Bermudagrass ([3]; Preemergence, 250 g ai/ha): 55; Cupgrass, Woolly plant response rating [4, 15]: 75; Plant response rating (scale of 0 to 100), Cupgrass, Woolly ([4]; Preemergence, 250 g ai/ha): 90
O=C1NCC(c2ccc(C(F)(F)F)cc2)C1C(=O)Nc1ccccc1F (stereo not shown) [Compound 231] | 55 | 60 | 60 | 20 | 0 |  | 85 | 0 | 0 | 0 | 15 | 0 |  | 35 |  |  |  |  |  |  | Plant response rating ([1]; Postemergence, 250 g ai/ha): 65; Plant response rating, Kochia ([1]; Preemergence, 125 g ai/ha): 80; Plant response rating ([2]; Postemergence, 250 g ai/ha): 0; Plant response rating, Canarygrass ([2]; Preemergence, 125 g ai/ha): 20
